Patent publication US11267824B2, “Inhibitors of indoleamine 2,3-dioxygenase and/or tryptophan 2,3-dioxygenase” (IDORSIA PHARMACEUTICALS LTD, priority 2017, dated 2022)

Columns and labels:
[1] = target: Recombinant full-length human IDO1 (Homo sapiens (Human), UniProt P14902); assay: IDO1 enzymatic assay (IDO inhibitory activity); type: biochemical; details: 2 nM enzyme, 5 μM L-tryptophan, pH6.5, 30 min pre-incubation, NFK quantified by LCMS; mean values if measured multiple times; read-out: hIDO activity (IC50 in nM)
Chain of Recombinant full-length human IDO1 (P14902 whole entry): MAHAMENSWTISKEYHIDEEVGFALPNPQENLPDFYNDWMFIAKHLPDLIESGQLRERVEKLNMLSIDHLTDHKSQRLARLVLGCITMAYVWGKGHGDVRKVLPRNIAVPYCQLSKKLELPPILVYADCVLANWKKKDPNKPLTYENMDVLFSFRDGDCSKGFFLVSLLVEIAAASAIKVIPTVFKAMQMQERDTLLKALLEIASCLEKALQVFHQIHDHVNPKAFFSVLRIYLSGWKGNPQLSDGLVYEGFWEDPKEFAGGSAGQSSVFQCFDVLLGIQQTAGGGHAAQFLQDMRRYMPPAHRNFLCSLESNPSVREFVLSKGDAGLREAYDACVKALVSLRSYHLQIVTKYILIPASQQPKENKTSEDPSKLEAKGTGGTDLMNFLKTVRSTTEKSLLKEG
How it was run: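 N-His-tagged enzyme from E. coli at 2 nM in 37.5 mM phosphate pH6.5 with ascorbate, methylene blue, catalase; compounds 10 μM–0.5 nM, 0.6% DMSO, pre-incubated 30 min RT, then 5 μM L-tryptophan for 30 min RT. NFK quantified by LCMS against d5-tryptophan; IC50 from duplicate four-parameter fit, means where repeated.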

[2] = target: Recombinant human TDO comprising amino acids 19-407 (Homo sapiens (Human), UniProt P48775); assay: TDO2 enzymatic assay (TDO inhibitory activity); type: biochemical; details: 15 nM enzyme, 200 μM L-tryptophan, pH7, 30 min pre-incubation, NFK quantified by LCMS; mean values if measured multiple times; read-out: hTDO activity (IC50 in nM)
Chain of Recombinant human TDO comprising amino acids 19-407 (P48775 19-406 limits assumed): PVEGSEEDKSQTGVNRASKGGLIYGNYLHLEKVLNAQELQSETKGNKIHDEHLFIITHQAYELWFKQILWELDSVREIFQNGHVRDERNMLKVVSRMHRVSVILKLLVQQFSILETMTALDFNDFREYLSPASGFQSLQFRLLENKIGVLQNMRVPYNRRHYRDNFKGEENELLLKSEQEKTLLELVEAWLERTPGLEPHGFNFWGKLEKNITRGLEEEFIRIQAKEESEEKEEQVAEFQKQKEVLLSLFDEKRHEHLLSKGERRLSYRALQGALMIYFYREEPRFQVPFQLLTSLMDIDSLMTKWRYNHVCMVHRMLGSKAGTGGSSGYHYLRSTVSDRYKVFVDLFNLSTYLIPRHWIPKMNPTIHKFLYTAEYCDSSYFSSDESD
How it was run: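 His-tagged enzyme (15 nM, E. coli-expressed) in pH 7 phosphate buffer with ascorbate, catalase, BSA, Tween 20, 0.6% DMSO; 30 min RT pre-incubation with compound (10 μM–0.5 nM), then 200 μM L-tryptophan for 30 min RT. N′-formylkynurenine quantified by LCMS against deuterated tryptophan; IC50 by four-parameter fit, duplicates.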

SMILES: CC1(C(O)c2c(C(F)(F)F)sc3cncn23)CCCC1 (racemic) [Example 137, rac-(1-Methyl-cyclopentyl)-(2-trifluoromethyl-imidazo[5,1-b]thiazol-3-yl)-methanol]
- IC50 [1]: 16.3 nM
- IC50 [2]: 54.7 nM

SMILES: OC(CC1CCC(C(F)F)CC1)c1c(C2CC2)sc2cncn12 (racemic) [Example 138, rac-1-(2-Cyclopropyl-imidazo[5,1-b]thiazol-3-yl)-2-(4-difluoromethyl-cyclohexyl)-ethanol]
- IC50 [1]: 24.3 nM
- IC50 [2]: 467 nM

SMILES: Cc1sc2cncn2c1C(O)C1(C)CCCC1 (racemic) [Example 140, rac-(1-Methyl-cyclopentyl)-(2-methyl-imidazo[5,1-b]thiazol-3-yl)-methanol]
- IC50 [1]: 30 nM
- IC50 [2]: 19.9 nM

SMILES: CCC1CCC(CC(O)c2c(C3CC3)sc3cncn23)CC1 (racemic) [Example 142, rac-1-(2-Cyclopropyl-imidazo[5,1-b]thiazol-3-yl)-2-(4-ethyl-cyclohexyl)-ethanol]
- IC50 [1]: 85.8 nM
- IC50 [2]: 2000 nM

SMILES: OC(c1cccc(C(F)(F)F)c1)c1c(C2CC2)sc2cncn12 (racemic) [Example 143, rac-(2-Cyclopropyl-imidazo[5,1-b]thiazol-3-yl)-(3-trifluoromethyl-phenyl)-methanol]
- IC50 [1]: 587 nM
- IC50 [2]: 765 nM

SMILES: OC(c1ccc(F)cc1)c1c(C2CC2)sc2cncn12 (racemic) [Example 144, rac-(2-Cyclopropyl-imidazo[5,1-b]thiazol-3-yl)-(4-fluoro-phenyl)-methanol]
- IC50 [1]: 32.8 nM
- IC50 [2]: 475 nM

SMILES: OC(c1cccc(F)c1)c1c(C2CC2)sc2cncn12 (racemic) [Example 145, rac-(2-Cyclopropyl-imidazo[5,1-b]thiazol-3-yl)-(3-fluoro-phenyl)-methanol]
- IC50 [1]: 33.1 nM
- IC50 [2]: 449 nM

SMILES: OC(c1ccc(Cl)cc1)c1c(C2CC2)sc2cncn12 (racemic) [Example 146, rac-(4-Chloro-phenyl)-(2-cyclopropyl-imidazo[5,1-b]thiazol-3-yl)-methanol]
- IC50 [1]: 63.9 nM
- IC50 [2]: 1090 nM

SMILES: COc1ccccc1C(O)c1c(C2CC2)sc2cncn12 (racemic) [Example 147, rac-(2-Cyclopropyl-imidazo[5,1-b]thiazol-3-yl)-(2-methoxy-phenyl)-methanol]
- IC50 [1]: 1110 nM
- IC50 [2]: 6800 nM

SMILES: Cc1ccccc1C(O)c1c(C2CC2)sc2cncn12 (racemic) [Example 148, rac-(2-Cyclopropyl-imidazo[5,1-b]thiazol-3-yl)-o-tolyl-methanol]
- IC50 [1]: 1160 nM
- IC50 [2]: 2530 nM

SMILES: OC(c1cccc(Cl)c1)c1c(C2CC2)sc2cncn12 (racemic) [Example 149, rac-(3-Chloro-phenyl)-(2-cyclopropyl-imidazo[5,1-b]thiazol-3-yl)-methanol]
- IC50 [1]: 65.1 nM
- IC50 [2]: 1820 nM

SMILES: CCCC1CCC(CC(O)c2c(C3CC3)sc3cncn23)CC1 (racemic) [Example 150, rac-1-(2-Cyclopropyl-imidazo[5,1-b]thiazol-3-yl)-2-(4-propyl-cyclohexy-etethanol]
- IC50 [1]: 687 nM
- IC50 [2]: 3230 nM

SMILES: OC1CCC(C(O)c2c(C3CC3)sc3cncn23)CC1 (racemic) [Example 151, rac-4-[(2-Cyclopropyl-imidazo[5,1-b]thiazol-3-yl)-hydroxy-methyl]-cyclohexanol]
- IC50 [1]: 102 nM
- IC50 [2]: 2640 nM

SMILES: OC1CCC(CC(O)c2c(C3CC3)sc3cncn23)CC1 (racemic) [Example 152, rac-4-[2-(2-Cyclopropyl-imidazo[5,1-b]thiazol-3-yl)-2-hydroxy-ethyl]-cyclohexanol]
- IC50 [1]: 18.4 nM
- IC50 [2]: 1130 nM

SMILES: Cc1cc(-c2sc3cncn3c2C(O)C2CCCCC2)cs1 (racemic) [Example 153, rac-Cyclohexyl-[2-(5-methyl-thiophen-3-yl)-imidazo[5,1-b]thiazol-3-yl]-methanol]
- IC50 [1]: 766 nM
- IC50 [2]: 854 nM

SMILES: OC(c1c(Cc2ccccc2)sc2cncn12)C1CCCCC1 (racemic) [Example 154, rac-(2-Benzyl-imidazo[5,1-b]thiazol-3-yl)-cyclohexyl-methanol]
- IC50 [1]: 7110 nM
- IC50 [2]: 4270 nM

SMILES: OC(CC1CCCCC1)c1c(C2CC(F)(F)C2)sc2cncn12 (racemic) [Example 155, rac-2-Cyclohexyl-1-[2-(3,3-difluoro-cyclobutyl)-imidazo[5,1-b]thiazol-3-yl]-ethanol]
- IC50 [1]: 485 nM
- IC50 [2]: 1910 nM

SMILES: OC(c1c(C2CC(F)(F)C2)sc2cncn12)C1CCCCC1 (racemic) [Example 156, rac-Cyclohexyl-[2-(3,3-difluoro-cyclobutyl)-imidazo[5,1-b]thiazol-3-yl]-methanol]
- IC50 [1]: 1070 nM
- IC50 [2]: 1780 nM

SMILES: COCc1sc2cncn2c1C(O)C1CCCCC1 (racemic) [Example 157, rac-Cyclohexyl-(2-methoxymethyl-imidazo[5,1-b]thiazol-3-yl)-methanol]
- IC50 [1]: 744 nM
- IC50 [2]: 327 nM

SMILES: Cc1sc2cncn2c1C(O)C#Cc1ccccc1 (racemic) [Example 158, rac-1-(2-Methyl-imidazo[5,1-b]thiazol-3-yl)-3-phenyl-prop-2-yn-1-ol]
- IC50 [1]: 459 nM
- IC50 [2]: > 10200 nM

SMILES: OC(c1ccc(C(F)(F)F)cc1)c1c(C2CC2)sc2cncn12 (racemic) [Example 159, rac-(2-Cyclopropyl-imidazo[5,1-b]thiazol-3-yl)-(4-trifluoromethyl-phenyl)-methanol]
- IC50 [1]: 305 nM
- IC50 [2]: 2700 nM

SMILES: CCNC1CCC(CC(O)c2c(C3CC3)sc3cncn23)CC1 (racemic) [Example 160, rac-1-(2-Cyclopropyl-imidazo[5,1-b]thiazol-3-yl)-2-(4-ethylamino-cyclohexyl)-ethanol]
- IC50 [1]: 2370 nM
- IC50 [2]: > 10200 nM

SMILES: CC1(C)CCC(C(O)c2c(C(F)(F)F)sc3cncn23)CC1 (racemic) [Example 161, rac-(4,4-Dimethyl-cyclohexyl)-(2-trifluoromethyl-imidazo[5,1-b]thiazol-3-yl)-methanol]
- IC50 [1]: 58.3 nM
- IC50 [2]: 2770 nM

SMILES: Cc1sc2cncn2c1C(O)c1ccccc1 (racemic) [Example 162, rac-(2-Methyl-imidazo[5,1-b]thiazol-3-yl)-phenyl-methanol]
- IC50 [1]: 561 nM
- IC50 [2]: 1000 nM

SMILES: OC(c1ccccc1F)c1c(C2CC2)sc2cncn12 (racemic) [Example 163, rac-(2-Cyclopropyl-imidazo[5,1-b]thiazol-3-yl)-(2-fluoro-phenyl)-methanol]
- IC50 [1]: 56.7 nM
- IC50 [2]: 1290 nM

SMILES: OC(c1ccccc1Cl)c1c(C2CC2)sc2cncn12 (racemic) [Example 164, rac-(2-Chloro-phenyl)-(2-cyclopropyl-imidazo[5,1-b]thiazol-3-yl)-methanol]
- IC50 [1]: 1120 nM
- IC50 [2]: 3020 nM

SMILES: OC(c1c(C2CC2)sc2cncn12)C1CCCCCC1 (racemic) [Example 165, rac-Cycloheptyl-(2-cyclopropyl-imidazo[5,1-b]thiazol-3-yl)-methanol]
- IC50 [1]: 14.2 nM
- IC50 [2]: 382 nM

SMILES: CC1(C(O)c2c(C3CC3)sc3cncn23)CCCCCC1 (racemic) [Example 166, rac-(2-Cyclopropyl-imidazo[5,1-b]thiazol-3-yl)-(1-methyl-cycloheptyl)-methanol]
- IC50 [1]: 32.1 nM
- IC50 [2]: 310 nM

SMILES: Cc1sc2cncn2c1C(O)C1CCN(c2ccccc2)CC1 (racemic) [Example 169, rac-(2-Methyl-imidazo[5,1-b]thiazol-3-yl)-(1-phenyl-piperidin-4-yl)-methanol]
- IC50 [1]: 537 nM
- IC50 [2]: 3960 nM

SMILES: CC1(c2sc3cncn3c2C(O)C2CCCCC2)CC1 (racemic) [Example 170, rac-Cyclohexyl-[2-(1-methyl-cyclopropyl)-imidazo[5,1-b]thiazol-3-yl]-methanol]
- IC50 [1]: 415 nM
- IC50 [2]: 2260 nM

SMILES: OC(c1cccs1)c1c(C2CC2)sc2cncn12 (racemic) [Example 171, rac-(2-Cyclopropyl-imidazo[5,1-b]thiazol-3-yl)-thiophen-2-yl-methanol]
- IC50 [1]: 90.3 nM
- IC50 [2]: 1580 nM

SMILES: CCc1sc2cncn2c1C(O)C1(C)CCCC1 (racemic) [Example 172, rac-(2-Ethyl-imidazo[5,1-b]thiazol-3-yl)-(1-methyl-cyclopentyl)-methanol]
- IC50 [1]: 4.97 nM
- IC50 [2]: 28.7 nM

SMILES: OC(c1ccsc1)c1c(C2CC2)sc2cncn12 (racemic) [Example 173, rac-(2-Cyclopropyl-imidazo[5,1-b]thiazol-3-yl)-thiophen-3-yl-methanol]
- IC50 [1]: 77.3 nM
- IC50 [2]: 1770 nM

SMILES: Cc1sc2cncn2c1C(O)C1(C)CCCCC1 (racemic) [Example 174, rac-(1-Methyl-cyclohexyl)-(2-methyl-imidazo[5,1-b]thiazol-3-yl)-methanol]
- IC50 [1]: 32.4 nM
- IC50 [2]: 37.9 nM

SMILES: CCc1sc2cncn2c1C(O)C1(C)CCCCC1 (racemic) [Example 175, rac-(2-Ethyl-imidazo[5,1-b]thiazol-3-yl)-(1-methyl-cyclohexyl)-methanol]
- IC50 [1]: 7.04 nM
- IC50 [2]: 66.8 nM

SMILES: CCc1sc2cncn2c1C(O)c1ccccc1 (racemic) [Example 176, rac-(2-Ethyl-imidazo[5,1-b]thiazol-3-yl)-phenyl-methanol]
- IC50 [1]: 59.3 nM
- IC50 [2]: 195 nM

SMILES: Cc1sc2cncn2c1C(O)CC1CCC(C)(C)CC1 (racemic) [Example 177, rac-2-(4,4-Dimethyl-cyclohexyl)-1-(2-methyl-imidazo[5,1-b]thiazol-3-yl)-ethanol]
- IC50 [1]: 199 nM
- IC50 [2]: 1950 nM
